# Assay results: patent publication US10576078B2 (Council of Scientific & Industrial Research, priority 2017, dated 2020)
# Experiments:
# [1] = system: stat5b, HIF-1α, HIF-2α and CITED2 transcripts in CD34+ cells from imatinib-resistant patients; experiment: QRT-PCR of stem cell factors in CD34+ CML cells; assay type: cell-based, Human
# Procedure: CD34^+ cells isolated from IMT-resistant patients (n=3) were treated with CFZ (5 μM, 24 h) and stat5b, HIF-1α, HIF-2α and CITED2 transcripts were assessed by QRT-PCR (in triplicates). ***p<0.0001.
# CD34+ cells were isolated from imatinib-resistant CP-CML cells as described above. Cells were then treated with vehicle (V; 0.1% DMSO) or CFZ (5 μM) for 24 h. Total RNA was isolated from CD34+ cells as described above, using TRI reagent. 2 μg total RNA was reverse transcribed using High-Capacity cDNA Reverse Transcription Kit (Applied Biosystems; Foster City, Calif.). Quantitative real-time PCRs (QRT-PCR) were performed on a LightCycler 480 System (Roche, Indianapolis, Ind.) using VeriQuest SYBR Green qPCR Master Mix (Affymetrix, Thermo Scientific). The QRT-PCR primers were designed using Universal ProbeLibrary Assay Design Center (Roche Life Science). Primer sequences (5′-3′) hSTAT5B-For-TGAAG […], hSTAT5B-Rev […] ACTG, hHIF-1α-For-[…], hHIF-1α-Rev-[…], hHIF-2α-For-[…], hHIF-2α-Rev-[…], hCITED-2-For-[…], hCITED-2-Rev-[…]. The data were analyzed by ΔΔCT method with GAPDH (GAPDH-For-[…], GAPDH-Rev-GCC […]) used as an internal control (FIG. 2F).
# [2] = system: K562 cells; experiment: TUNEL assay in K562 cells; assay type: cell-based, Human; settings: CFZ 5 μM, 48 h
# Procedure: K562 cells were treated with CFZ for 48 h and TUNEL staining was performed followed by fluorescent microscopy. Images are representative of two independent experiments (8 fields per group).
# [3] = system: aldehyde dehydrogenase (ALDH) activity in CP-CML cells; experiment: Aldefluor assay of aldehyde dehydrogenase activity; assay type: cell-based, Human; settings: imatinib-resistant CP-CML cells, n=6, 5 μM, 48 h
# Procedure: CP-CML cells from imatinib-resistant patients (n=6) were treated with CFZ or salinomycin (5 μM; 48 h) and aldehyde dehydrogenase activity in these cells were assessed using an ALDEFLUOR kit (Stemcell technologies). ***p<0.0001.
# CP-CML cells isolated from imatinib-resistant patients were treated with vehicle (V; 0.1% DMSO), CFZ or salinomycin (both 5 μM) for 48 h (FIG. 2C). Aldehyde dehydrogenase activity in CP-CML cells was assessed using an Aldefluor kit ([…] technologies) by flow cytometry (FACSCalibur).
# [4] = system: K562 cells; experiment: Apoptosis by annexin V/PI staining and flow cytometry in K562 cells; assay type: cell-based, Human; settings: 48 h
# Procedure: K562 cells were treated with CFZ for 48 h and apoptosis was analyzed by annexin V and propidium iodide (PI) staining followed by flow-cytometry (FACSCalibur, BD biosciences). (C) Mean±SEM of three independent experiments are plotted. (D) Representative dot plot.
# [5] = rat, in vivo, po
# From the text: (§1) Sprague-Dawley rats (n=6 per group) were divided into 3 groups. […] Plasma was separated and processed for analysis by LC-MS/MS. For pharmacokinetic and statistical analysis, plasma concentration versus time data were plotted and analyzed by non-compartmental analysis method using WinNonlin (Pharsight, Mountain View, Calif.) software.
# as §1, with “For this SD” for “Sprague-Dawley”
# [6] = system: chronic phase CML patient-derived mononuclear cells (CP-CML cells); experiment: Apoptosis by annexin V/PI staining in CP-CML cells; assay type: cell-based, Human; settings: 5 μM, 48 h
# From the text: FD; freshly diagnosed, Resp; imatinib-responder, Res; imatinib-resistant.
# Peripheral blood samples were obtained from chronic phase (CP-CML), accelerated phase (AP) or blast crisis (BC) CML patients (BCR− ABL+ v e freshly diagnosed, Imatinib-resistant or responders), and healthy donors from King George's Medical University (Clinical Hematology and Medical Oncology division), Lucknow, following ethical approval (Approval No: 1638/R. Cell-12) as per institutional ethical guidelines after written consent. Peripheral blood mononuclear cells (PBMC) were isolated on Percoll (Sigma) density gradient by centrifugation. Briefly, the blood was collected in vials coated with trisodium citrate buffer. Cells were then centrifuged 700 g for 10 min and plasma was removed. The pellet was resuspended in 6 ml Hank's balanced salt solution (HBSS; Invitrogen, Thermo Fisher Scientific), and then 2 ml of 6% Dextran in HBSS was added to it. Cells were then incubated at 37° C. for 30 min. The supernatant was then collected and centrifuged at 300 g for 5 min. The pellet was then resuspended in 2 ml HBSS supplemented with 0.18% glucose and loaded onto percoll gradient. PBMCs were then isolated by centrifugation.
# [7] = CD34+ cells from imatinib-resistant patients, CFZ 5 μM, 24 h
compound,measurement,setting,value
"CC(C)/N=c1\cc2n(-c3ccc(Cl)cc3)c3ccccc3nc-2cc1Nc1ccc(Cl)cc1 [CFZ, Clofazimine]",CITED2 transcript,[1]; [7],reduced
same,HIF-1α transcript,[1]; [7],reduced
same,HIF-2α transcript,[1]; [7],reduced
same,stat5b transcript,[1]; [7],reduced
same,stat5 mRNA expression,[1]; FIG. 2F,suppressed
same,apoptosis as determined by TUNEL assay,[2],induces apoptosis
same,aldehyde dehydrogenase (ALDH) activity,[3],remarkably decreased
same,apoptosis by Annexin V staining,[4],concentration-dependently induces apoptosis
same,Tmax in combination group compared to individual groups,[5],no change
same,clearance in combination group compared to individual groups,[5],lower
same,efficacy of apoptosis induction,[6]; CP-CML cells from freshly diagnosed patients,comparable to imatinib
same,efficacy of apoptosis induction,[6]; CP-CML cells from imatinib responders,comparable to imatinib
same,efficacy of apoptosis induction versus dasatinib,[6]; CP-CML cells harboring BCR-ABL mutation F359V,higher
same,efficacy of apoptosis induction versus dasatinib,[6]; CP-CML cells harboring BCR-ABL mutation M244V,comparable
same,efficacy of apoptosis induction versus dasatinib,[6]; CP-CML cells harboring BCR-ABL mutation M351T,higher
same,efficacy of apoptosis induction versus dasatinib,[6]; CP-CML cells harboring BCR-ABL mutation Y253H,higher
same,efficacy of apoptosis induction,[6]; imatinib-resistant CP-CML cells,higher than imatinib and dasatinib
